Experimental data as given in ChEMBL document CHEMBL4330079, “Cyclin G-associated kinase (GAK) affinity and antiviral activity studies of a series of 3-C-substituted isothiazolo[4,3-b]pyridines” (Eur J Med Chem, 2019).

Columns and labels:
[1] = target: T1, Cyclin-G-associated kinase (Homo sapiens, UniProt O14976); assay: Binding affinity to wild type DNA-tagged human GAK (G13 to Y338 residues) expressed in bacterial expression system by quantitative PCR based KINOMEscan assay
T1 sequence (O14976 whole entry): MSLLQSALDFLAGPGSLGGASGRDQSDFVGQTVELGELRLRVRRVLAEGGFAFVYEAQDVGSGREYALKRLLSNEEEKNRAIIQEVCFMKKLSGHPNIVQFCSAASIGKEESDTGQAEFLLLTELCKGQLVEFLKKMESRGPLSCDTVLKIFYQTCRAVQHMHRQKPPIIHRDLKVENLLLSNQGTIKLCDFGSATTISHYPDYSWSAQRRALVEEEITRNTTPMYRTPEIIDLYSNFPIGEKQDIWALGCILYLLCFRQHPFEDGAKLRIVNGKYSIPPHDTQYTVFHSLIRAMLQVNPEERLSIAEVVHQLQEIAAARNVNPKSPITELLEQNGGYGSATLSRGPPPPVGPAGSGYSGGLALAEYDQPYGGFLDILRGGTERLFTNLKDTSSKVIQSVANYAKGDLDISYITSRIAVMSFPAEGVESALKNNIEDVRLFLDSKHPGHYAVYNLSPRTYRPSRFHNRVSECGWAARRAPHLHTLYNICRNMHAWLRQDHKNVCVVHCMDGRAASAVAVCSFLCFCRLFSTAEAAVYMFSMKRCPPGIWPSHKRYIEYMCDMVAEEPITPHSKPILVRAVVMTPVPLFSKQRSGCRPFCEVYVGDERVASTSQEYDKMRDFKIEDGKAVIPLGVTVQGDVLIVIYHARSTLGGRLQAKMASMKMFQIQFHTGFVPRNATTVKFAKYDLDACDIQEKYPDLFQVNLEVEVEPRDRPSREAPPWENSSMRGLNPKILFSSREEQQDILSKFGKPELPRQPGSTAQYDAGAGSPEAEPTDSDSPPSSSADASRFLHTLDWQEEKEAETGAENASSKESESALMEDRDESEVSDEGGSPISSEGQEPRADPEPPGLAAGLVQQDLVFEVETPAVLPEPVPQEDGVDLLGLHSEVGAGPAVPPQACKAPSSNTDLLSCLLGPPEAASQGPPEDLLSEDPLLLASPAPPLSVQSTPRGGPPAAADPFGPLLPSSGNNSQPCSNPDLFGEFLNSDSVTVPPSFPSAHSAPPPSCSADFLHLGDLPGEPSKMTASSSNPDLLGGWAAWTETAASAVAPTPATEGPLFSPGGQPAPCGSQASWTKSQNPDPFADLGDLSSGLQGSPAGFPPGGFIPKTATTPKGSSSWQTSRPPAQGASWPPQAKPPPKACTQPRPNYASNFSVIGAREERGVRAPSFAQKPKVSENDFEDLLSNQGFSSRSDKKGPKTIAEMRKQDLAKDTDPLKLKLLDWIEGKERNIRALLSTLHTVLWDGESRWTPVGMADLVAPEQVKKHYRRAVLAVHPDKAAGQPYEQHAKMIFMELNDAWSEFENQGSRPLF

[2] = test system: dengue virus type 2; assay: Antiviral activity against DENV2 New Guinea C infected in human HuH7 cells after 48 hrs by luciferase reporter gene assay; type: functional, organism-based; settings: Thailand/NGS-C/1944, Huh-7, 48 h
[3] = test system: Huh-7; assay: Cytotoxicity against human HuH7 cells assessed as reduction in cell viability at 0.01 to 10 uM after 48 hrs by Cell-Titer Glo assay; type: cell-based; settings: huh-7, 48 h

Kd [1]	EC50 [2]	Compound	Activity [3]
> 30000 nM	–	COc1ccc(-c2cnc3c(-c4ccc(C#N)cc4)snc3c2)cc1OC	–
–	3.35 µM	COc1ccc(-c2cnc3c(-c4ccc(OC)c(OC)c4)snc3c2)cc1OC	Non-Toxic
520 nM	–	COc1ccc(-c2cnc3c(-c4ccncc4)snc3c2)cc1OC	–
> 30000 nM	–	COc1ccc(-c2cnc3c(C#Cc4ccccc4)snc3c2)cc1OC	–
> 30000 nM	–	COC(=O)c1ccc(-c2snc3cc(-c4ccc(OC)c(OC)c4)cnc23)cc1	–
860 nM	–	COc1ccc(-c2cnc3c(-c4ccsc4)snc3c2)cc1OC	–

Compound	Kd [1]	EC50 [2]	Activity [3]
COc1ccc(-c2cnc3c(-c4ccccc4)snc3c2)cc1OC	770 nM	–	–
